Data taken from patent publication US20060052341A1, “Control of a biological function” (priority 2002, published 2006).
Read-outs that look alike come from different tables or passages of the source. One block for each molecule: values may come before it.

Experiments:
[1] = within 6 hours of ingesting 1.5 g, human subjects; cited from earlier work
[2] = prior art, cited from earlier work
[3] = Serum oestradiol after intravaginal release of oestradiol 17β/cyclodextrin tablets; oestradiol half life; assay type: in vivo, cattle
Experimental: However, oestradiol benzoate is only one of the preferred oestrogen component of the present invention.
For the purpose of the present invention as exampled via the control of oestrus in cattle, release of oestrogen tablets into the vagina was carefully timed and recorded. […] A 1 mg dose produced maximum mean values of 130-180 pg/ml at 100-130 minutes after treatment, while a 2 mg dose led to maxima of 180 to >250 pg at 120-150 minutes.
A 1 mg dose produced maximum mean values of 130-180 pg/ml at 100-130 minutes after treatment, while a 2 mg dose led to maxima of 180 to >250 pg at 120-150 minutes, as illustrated in FIG. 11.

[4] = 24 mg controlled release implants, non-pregnant heifers; cited from earlier work
in vivo = settings: female, cattle
From the text: In the urine, up to 30% of an administered dose appears as a conjugate of glucuronic acid and pregnanediol.

[5] = rat, in vivo; cited from earlier work
[6] = cited from earlier work
[7] = treated cows; cited from earlier work
cattle = test: Luteolysis studies with intravaginal sodium cloprostenol; assay type: in vivo
Experimental: In effecting the desired delivery regime for the present invention as directed to use in controlling bestrus in cattle, a number of studies were conducted. […] There is no reliable blood test for sodium cloprostenol. The best test is to assess the success of luteolysis following application of sodium cloprostenol.

dairy cows = settings: seven hundred and thirty seven dairy cows, three years; cited from earlier work
[8] = 7.2 mg oestradiol 17β intravaginally
[9] = 1 mg dose, intravaginal tablet with cyclodextrin carrier
[10] = 1 mg oestradiol benzoate by intramuscular injection
[11] = vaginal administration of 10 mg oestradiol benzoate

Structure (SMILES): OCc1ccccc1 [benzyl alcohol]
dose eliminated in the urine as hippuric acid [1]: 75% to 85%

maximum mean serum oestradiol [3, 9]: 130 to 180 pg/mL | time of maximum serum oestradiol after treatment [3, 9]: 100 to 130 min | time of maxima of serum oestradiol ([3]; 2 mg dose, intravaginal tablet with cyclodextrin carrier): 120 to 150 min | time for serum oestradiol to reach peak values from basal levels ([3]; intravaginal oestrogen tablets): 2 to 3 h | half life ([3]; oestradiol without the benzoate component): only a few minutes
Structure (SMILES): C[C@]12CC[C@@H]3c4ccc(O)cc4CC[C@H]3[C@@H]1CC[C@@H]2O [oestradiol 17β, oestra-1,3,5 (10)-triene-3,17β-diol]
peak plasma oestradiol concentration ([2]; 7.2 mg oestradiol 17β intravaginally with cyclodextrin): 10 to 20 pg/mL | duration of elevated plasma levels [2, 8]: at least 24 hours | time of peak plasma oestradiol [2, 8]: four

half life ([3]; bovine, in vivo): longer than two to three minutes
Structure (SMILES): C[C@]12CC[C@@H]3c4ccc(OC(=O)c5ccccc5)cc4CC[C@H]3[C@@H]1CC[C@@H]2O [oestradiol benzoate, oestra-1,3,5 (10)-triene-3,17β-diol 3-benzoate]
peak plasma oestradiol concentration [2, 10]: 8 to 13 pg/mL | time of peak plasma oestradiol [2, 10]: approximately 2 hours | peak plasma oestradiol concentration [2, 11]: 2 to 5 pg/mL | time of peak plasma oestradiol [2, 11]: 2 to 48 h

Structure (SMILES): C[C@]12CC[C@@H]3c4ccc(O)cc4CC[C@H]3[C@@H]1CC[C@@H]2O [oestradiol]
oestrogen levels in tissues of slaughtered animals [4]: not significantly different from untreated animals

Structure (SMILES): CC(=O)[C@H]1CC[C@H]2[C@@H]3CCC4=CC(=O)CC[C@]4(C)[C@H]3CC[C@]12C [progesterone]
half-life (in vivo): ~20 min | LD100 [5]: 327.1 mg/kg | half-life of progesterone in blood ([6]; in vivo): only a few minutes

Structure (SMILES): CCCCC[C@H](O)/C=C/[C@@H]1[C@@H](C/C=C\CCCC(=O)O)[C@@H](O)C[C@H]1O [prostaglandin PGF2α, prostaglandin F2α]
half-life in the blood [7]: three | half-life ([6]; rapid breakdown): a few minutes

Structure (SMILES): O=C(O)CCC/C=C\CC1C(O)CC(O)C1/C=C/C(O)COc1cccc(Cl)c1 (stereo not drawn) [sodium cloprostenol, cloprostenol sodium]
response to treatment compared with prior art intramuscular injection of prostaglandin alone (cattle; HPβCD carrier, increased dose rate): equivalent response | luteolytic effect (cattle; intravaginal, without a suitable carrier, at the level dosed): not having a complete luteolic effect | luteolytic effect (cattle; same dose administered with HPβCD): incomplete luteolysis | side effects on subsequent fertility (dairy cows): no chronic side effects on subsequent fertility
